One assay has as its target PRMT5 (Homo sapiens, UniProt O14744). In words: PRMT5 IC50 (Table 2; no method described). Particulars: read-out: PRMT5_ IC50. It counts as biochemical.
Assay [1] concerns asymmetric di-methyl PABP1 in RKO cells. In words: In Cell Western (ICW) for asymmetric di-methyl PABP1 and DNA content in RKO cells. The class given is cell-based. Particulars: Homo sapiens, RKO, In Cell Western. An outline of the steps: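 RKO cells treated with compound for 48 h at 37 °C, then fixed, methanol-permeabilized and stained for asymmetric di-methyl PABP1 (800 nm) with DRAQ5 DNA stain (700 nm). Signal ratio normalized to DMSO and 20 μM reference-compound controls. IC50 from nine 3-fold dilutions in triplicate.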

Another assay has as its target T1, human PRMT1 (Homo sapiens, UniProt Q99873).
T1 construct: GST-tagged PRMT1; made in house; host or cells: High Five insect cells (baculovirus, pFastBacI)
The experiment in a line: PRMT1 biochemical assay (3H-SAM Flashplate, peptide substrate). Particulars: read-out: PRMT1_ IC50. An excerpt: S-adenosylmethionine (SAM), S-adenosylhomocysteine (SAH), bicine, Tween20, dimethylsulfoxide (DMSO), bovine skin gelatin (BSG), and Tris(2-carboxyethyl)phosphine hydrochloride solution (TCEP) were purchased from Sigma-Aldrich at the highest level of purity possible. ^3H-SAM was purchase from American Radiolabeled Chemicals with a specific activity of 80 Ci/mmol. 384-well streptavidin Flashplates were purchased from PerkinElmer.
Peptide representative of human histone H4 residues 36-50 was synthesized with an N-terminal linker-affinity tag motif and a C-terminal amide cap by 21st Century Biochemicals. The peptide was purified by high-performance liquid chromatography (HPLC) to greater than 95% purity and confirmed by liquid chromatography mass spectrometry (LC-MS). The sequence was Biot-Ahx-[…]-amide (SEQ ID NO.: 1).
Full-length human PRMT1 isoform 1 (NM_001536.5) transcript clone was amplified from an HEK 293 cDNA library, incorporating flanking 5′ sequence encoding a FLAG tag ([…]) (SEQ ID NO.: 2) fused directly to Met 1 of PRMT1. The amplified gene was subcloned into pFastBacI (Life Technologies) modified to encode an N-terminal GST tag and a TEV cleavage sequence ([…] […] […] […] QGGNS)(SEQ ID NO.: 3) fused to Asp of the Flag tag of PRMT1.
Recombinant baculovirus were generated according to Bac-to-Bac kit instructions (Life Technologies). Protein over-expression was accomplished by infecting exponentially growing High Five insect cell culture at 1.5×10^6 cell/ml with 1:100 ratio of virus. Infections were carried out at 27° C. for 48 hours, harvested by centrifugation, and stored at −80° C. for purification.
GST-tagged PRMT1 was eluted with 50 mM Tris, 2 mM glutathione, pH 7.8, dialysed in buffer A and concentrated to 1 mg/mL. The purity of recovered protein was 73%. Reference: Wasilko, D. J. and S. E. Lee: “TIPS: titerless infected-cells preservation and scale-up” Bioprocess J., 5 (2006), pp. 29-32.
General Procedure for PRMT1 Enzyme Assays on Peptide Substrates.
The assays were all performed in a buffer consisting of 20 mM Bicine (pH=7.6), 1 mM TCEP, 0.005% BSG, and 0.002% Tween 20, prepared on the day of use. Compounds in 100% DMSO (1 ul) were spotted into a polypropylene 384-well V-bottom plates (Greiner) using a Platemate Plus outfitted with a 384-channel head (Thermo Scientific). DMSO (1 ul) was added to Columns 11, 12, 23, 24, rows A-H for the maximum signal control and 1 ul of SAH, a known product and inhibitor of PRMT1, was added to columns 11, 12, 23, 24, rows I-P for the minimum signal control. A cocktail (40 ul) containing the PRMT1 enzyme was added by Multidrop Combi (Thermo-Fisher). The compounds were allowed to incubate with PRMT1 for 30 min at room temperature, then a cocktail (10 ul) containing SAM and peptide was added to initiate the reaction (final volume=51 ul). The final concentrations of the components were as follows: PRMT1 was 0.5 nM, ^3H-SAM was 200 nM, non-radiolabeled SAM was 1.5 uM, peptide was 20 nM, SAH in the minimum signal control wells was 1 mM, and the DMSO concentration was 2%. The assays were stopped by the addition of non-radiolabeled SAM (10 ul) to a final concentration of 300 uM, which dilutes the ^3H-SAM to a level where its incorporation into the peptide substrate is no longer detectable. 50 ul of the reaction in the 384-well polypropylene plate was then transferred to a 384-well Flashplate and the biotinylated peptides were allowed to bind to the streptavidin surface for at least 1 hour before being washed once with 0.1% Tween20 in a Biotek ELx405 plate washer. The plates were then read in a PerkinElmer TopCount plate reader to measure the quantity of ^3H-labeled peptide bound to the Flashplate surface, measured as disintegrations per minute (dpm) or alternatively, referred to as counts per minute (cpm).
Where dpm=disintegrations per minute, cmpd=signal in assay well, and min and max are the respective minimum and maximum signal controls. […]

Structures are written as SMILES.

Sequence of PRMT5 (O14744 whole entry, species assumed): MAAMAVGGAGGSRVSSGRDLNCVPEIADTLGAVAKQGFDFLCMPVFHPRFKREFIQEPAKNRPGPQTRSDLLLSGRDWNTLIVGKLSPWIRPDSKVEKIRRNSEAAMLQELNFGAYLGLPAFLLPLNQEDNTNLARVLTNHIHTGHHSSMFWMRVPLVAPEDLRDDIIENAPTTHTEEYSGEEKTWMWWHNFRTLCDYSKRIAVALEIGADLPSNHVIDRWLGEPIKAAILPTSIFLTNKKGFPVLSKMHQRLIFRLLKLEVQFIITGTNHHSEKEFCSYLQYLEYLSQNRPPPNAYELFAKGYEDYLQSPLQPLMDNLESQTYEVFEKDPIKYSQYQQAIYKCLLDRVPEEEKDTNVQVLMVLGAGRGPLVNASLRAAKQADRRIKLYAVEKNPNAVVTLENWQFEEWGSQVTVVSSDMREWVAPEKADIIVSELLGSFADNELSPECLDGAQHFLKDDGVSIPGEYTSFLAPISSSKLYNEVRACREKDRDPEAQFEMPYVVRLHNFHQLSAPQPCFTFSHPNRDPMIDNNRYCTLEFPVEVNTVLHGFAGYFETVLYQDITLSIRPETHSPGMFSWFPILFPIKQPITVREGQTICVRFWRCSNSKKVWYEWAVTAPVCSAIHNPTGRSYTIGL
Sequence of PRMT5 (Q9BQA1 whole entry partner, species assumed): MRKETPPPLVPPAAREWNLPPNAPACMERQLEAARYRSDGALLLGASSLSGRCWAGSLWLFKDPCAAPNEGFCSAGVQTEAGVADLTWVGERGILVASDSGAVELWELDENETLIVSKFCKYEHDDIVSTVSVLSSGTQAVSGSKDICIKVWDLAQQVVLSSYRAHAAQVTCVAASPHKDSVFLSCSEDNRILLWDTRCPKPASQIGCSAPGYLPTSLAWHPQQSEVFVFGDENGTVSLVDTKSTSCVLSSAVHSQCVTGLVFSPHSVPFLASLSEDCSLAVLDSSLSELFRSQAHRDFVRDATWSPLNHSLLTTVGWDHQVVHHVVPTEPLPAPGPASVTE
T1 sequence (Q99873 with tags, fused parts or gaps): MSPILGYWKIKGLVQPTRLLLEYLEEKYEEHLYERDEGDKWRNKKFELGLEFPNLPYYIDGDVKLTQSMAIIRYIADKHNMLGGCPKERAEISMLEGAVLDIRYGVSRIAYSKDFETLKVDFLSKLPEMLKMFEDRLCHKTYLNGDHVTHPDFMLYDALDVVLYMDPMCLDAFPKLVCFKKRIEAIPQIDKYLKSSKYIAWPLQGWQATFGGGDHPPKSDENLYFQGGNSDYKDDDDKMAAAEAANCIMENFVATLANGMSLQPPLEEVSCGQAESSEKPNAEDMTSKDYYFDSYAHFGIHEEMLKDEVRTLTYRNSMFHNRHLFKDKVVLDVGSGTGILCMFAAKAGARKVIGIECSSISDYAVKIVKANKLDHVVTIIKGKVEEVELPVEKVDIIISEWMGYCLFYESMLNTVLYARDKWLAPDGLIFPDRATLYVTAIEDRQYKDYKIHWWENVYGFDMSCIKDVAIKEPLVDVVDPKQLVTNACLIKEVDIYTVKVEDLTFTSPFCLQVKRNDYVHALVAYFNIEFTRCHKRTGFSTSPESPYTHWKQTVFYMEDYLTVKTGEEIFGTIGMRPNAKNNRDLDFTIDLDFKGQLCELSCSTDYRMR

Consider `Cc1[nH]c2ncc(-c3ccc(CNCCN)cc3)cc2c1C` [Compound 140], for which the values for the IC50 (at PRMT5; in assay [1]; at human PRMT1) were 128 nM, 12500 nM and 1090 nM, respectively.
In the case of `COc1cccc(Cn2cnc3ccc(-c4ccc(CNCCN)cc4)cc32)c1` [Compound 90], the IC50 was found to be 125 nM on PRMT5 and 430 nM on human PRMT1.
As to `CN(C)C(=O)c1ccc(Cn2cnc3ccc(-c4ccc(CNCCN)cc4)cc32)cc1` [Compound 147], the IC50 at PRMT5 is 129 nM; at human PRMT1 it was 1330 nM.
On to `NCCNCc1ccc(-c2ccc3ncn(-c4ccccc4)c3c2)cc1` [Compound 113], for which the values for the IC50 at PRMT5 and at human PRMT1 were 366 nM and 604 nM, respectively.
For the molecule `Cc1cccc(Cn2cnc3ccc(-c4ccc(CNCCN)cc4)cc32)c1` [Compound 127], the IC50 turned out to be 74.5 nM on PRMT5 and 802 nM on human PRMT1.
On to `Cc1cc(C)c(CNC(=O)c2ccnc(-c3cccc(CN(C)CCN)c3)c2)c(=O)[nH]1` [Compound 376], for which the half-inhibitory concentration (IC50) at PRMT5 was found to be 24400 nM; on human PRMT1 it was 202 nM.
Turning to `NCCNCc1ccc(-c2ccc3ncn(C4CCCC4)c3c2)cc1` [Compound 146], the IC50 on PRMT5 is 173 nM; on human PRMT1, 1330 nM.
In the case of `CNCCNCc1ccc(-c2cncc(C(=O)NCc3c(C)cc(C)[nH]c3=O)c2)cc1` [Compound 377], the half-inhibitory concentration (IC50) came out at 36500 nM at PRMT5 and 204 nM at human PRMT1.
For the molecule `NCCNCc1ccc(-c2ccc3nc(-c4ccc5cccnc5c4)[nH]c3c2)cc1` [Compound 77], the values for the IC50 on PRMT5 and on human PRMT1 were 258 nM and 317 nM, respectively.
Regarding `NCCNCc1ccc(-c2ccc3[nH]c(=O)n(-c4ccccc4)c3c2)cc1` [Compound 91], the IC50 at PRMT5 worked out at 502 nM; at human PRMT1, 431 nM.
For `Cc1cc2cc(-c3ccc(CNCCN)cc3)cnc2[nH]1` [Compound 152], the IC50 at PRMT5 was 316 nM; on human PRMT1, 1690 nM.
For `COc1ccc(-n2cnc3ccc(-c4ccc(CNCCN)cc4)cc32)cc1` [Compound 89], in that order: 417 nM and 414 nM.
For the molecule `N#Cc1ccc(-n2cnc3ccc(-c4ccc(CNCCN)cc4)cc32)cc1` [Compound 149], the 50% inhibitory concentration (IC50) at PRMT5 was 238 nM; at human PRMT1, 1530 nM.
On to `Cn1cnc2ccc(-c3ccc(CNCCN)cc3)cc21` [Compound 165], for which the concentration for half-maximal inhibition (IC50) at PRMT5 came to 250 nM; on human PRMT1, 4530 nM.

The record behind these values is US20170280720A1, “ARGININE […] INHIBITORS AND USES THEREOF” (EPIZYME, INC., priority 2014, published 2017).
